The source of these data is patent publication US8846704B2, “Thiopyrimidine-based compounds and uses thereof” (YM Biosciences Austraila Pty Ltd, priority 2007, dated 2014).

For test [1], the target named is T1, human JAK1 (Homo sapiens, UniProt P23458).
T1 construct: The kinase domain of human JAK1 was amplified; GST (N); made in house; host or cells: Sf9 insect cells (baculovirus)
The test is described as follows: Alphascreen tyrosine kinase enzyme assay, JAK1 kinase domain. It is filed as biochemical. The following applies: read-out: JAK1 IC50_nM. The method, then: For screening purposes, compounds (in 100% DMSO) were warmed at 37 degrees for at least 20 minutes before use. A […] stock was initially made in assay buffer, where the final concentration of DMSO was 0.3%. The stocks were then diluted in 384 well Optiplates (Packard) where the final concentration of the compound was […].
The kinase domain of human JAK1 was amplified from U937mRNA using the polymerase chain reaction with the following primers: […]
The JAK1 PCR products were cloned into the pDest20 destination vector (Gibco). The JAK1 plasmid was then transformed into competent DH10Bac cells (Gibco), and the recombinant baculovirus was prepared via Sf9 insect cell transfection.
Baculovirus preparations from each of the constructs were infected into either one or five liters of Sf9 cells (Invitrogen) grown in SF-900 medium (Invitrogen) to a cell density of approximately 1-2×10^6 cells/ml. Cells were infected with virus at a MOI of 0.8-3.0. Cells were harvested and lysed. Tyrosine kinase domains were purified by affinity chromatography on a glutathione-agarose column (Scientifix Pty. Ltd. catalog #: GSH-200).
Kinase assays were performed in 384 well Optiplates (Packard) using an Alphascreen Protein Tyrosine Kinase PY100 detection kit The compounds were pre-incubated with affinity purified PTK domain in the presence of phosphotyrosine assay buffer (10 mM HEPES, pH 7.5, 100 mM MgCl2, 25 mM NaCl, […] and 0.1% Tween 20) for 20 minutes. The compounds were then incubated with substrate in the presence of ATP. The substrate used was susbtrate-1 with the sequence biotin-EGPWLEEEEEAYGWMDF-NH2 [SEQ. ID. NO. 13] (final concentration […]). For HCK 80 μm ATP was used and incubated for 60 minutes. Alphascreen phosphotyrosine acceptor beads followed by streptavidin donor beads at a concentration of 1/100 in stop buffer were added to each well under subdued light and incubated for 2-3 hours., The Alphascreen plates were read on a Packard Fusion Alpha instrument.
A general note: In Alpha technology, singlet oxygen from a donor bead excites a nearby acceptor bead.

Test [2] concerns the target T2, human JAK2 (Homo sapiens, UniProt O60674).
T2 construct: The kinase domain of human JAK2 was amplified; GST (N); made in house; host or cells: Sf9 insect cells (baculovirus)
The test is described as follows: Alphascreen tyrosine kinase enzyme assay, JAK2 kinase domain. It is filed as biochemical. As to conditions: read-out: JAK2 IC50_nM. Put shortly:
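JAK2 kinase domain expressed in baculovirus/Sf9 and glutathione-affinity purified. Compounds (final […]) pre-incubated 20 min with enzyme in 10 mM HEPES pH 7.5, MgCl2, NaCl, vanadate, 0.1% Tween 20.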

Test [3] deals with T3, BaF3 TELJAK2 cells (BafT_J2) (Homo sapiens, UniProt O60674).
T3 construct: fused on or other part: TEL (ETV6) N-terminal part, coding nucleotides 1-487, serves as the oligomerising partner; It is fused through a Sal I site to the JAK2 kinase domain and expressed from pTRE2 in BaF3 cells bearing pTET-off; P41212 (Transcription factor ETV6)
T3 sequence (O60674 whole entry, change not shown, the tested form may be a part): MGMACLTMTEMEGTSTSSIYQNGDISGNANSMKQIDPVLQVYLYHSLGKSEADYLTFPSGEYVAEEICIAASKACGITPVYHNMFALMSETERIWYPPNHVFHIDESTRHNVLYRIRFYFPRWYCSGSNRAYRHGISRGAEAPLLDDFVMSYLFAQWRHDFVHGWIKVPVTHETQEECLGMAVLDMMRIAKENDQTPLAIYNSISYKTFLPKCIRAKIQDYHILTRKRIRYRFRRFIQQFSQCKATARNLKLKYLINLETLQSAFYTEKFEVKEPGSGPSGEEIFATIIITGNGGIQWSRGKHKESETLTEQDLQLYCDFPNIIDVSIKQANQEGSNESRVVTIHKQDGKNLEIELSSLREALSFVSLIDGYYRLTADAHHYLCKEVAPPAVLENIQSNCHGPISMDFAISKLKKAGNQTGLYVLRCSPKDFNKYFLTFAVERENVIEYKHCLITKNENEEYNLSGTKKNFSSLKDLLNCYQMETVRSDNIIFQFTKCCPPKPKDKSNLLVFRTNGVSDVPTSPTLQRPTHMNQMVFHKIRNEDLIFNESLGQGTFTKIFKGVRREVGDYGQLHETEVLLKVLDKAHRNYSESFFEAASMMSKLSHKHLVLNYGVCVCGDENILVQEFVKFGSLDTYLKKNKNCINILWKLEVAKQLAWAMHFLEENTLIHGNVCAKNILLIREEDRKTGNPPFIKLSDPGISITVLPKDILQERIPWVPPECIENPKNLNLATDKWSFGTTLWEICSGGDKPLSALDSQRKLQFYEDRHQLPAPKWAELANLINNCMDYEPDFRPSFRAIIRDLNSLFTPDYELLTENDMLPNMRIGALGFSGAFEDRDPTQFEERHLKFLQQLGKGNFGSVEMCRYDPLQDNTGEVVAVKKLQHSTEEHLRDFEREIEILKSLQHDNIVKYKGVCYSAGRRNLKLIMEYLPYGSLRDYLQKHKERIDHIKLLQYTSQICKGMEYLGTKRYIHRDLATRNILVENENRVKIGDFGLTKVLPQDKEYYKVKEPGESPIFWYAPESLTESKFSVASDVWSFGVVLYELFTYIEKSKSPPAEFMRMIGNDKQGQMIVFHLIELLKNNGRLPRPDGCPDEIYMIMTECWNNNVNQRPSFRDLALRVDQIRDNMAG
The test is described as follows: Cellular screening, BaF3 TEL:JAK2 cells, Alamar Blue. As to conditions: 40 hr, read-out: BafT_J2 IC50_nM. Type of test: cell-based. The method, then:
(§1) For screening purposes, compounds were diluted in 96 well plates at a concentration of 20 μM. Plates were warmed at 37° C. for 30 minutes before the assay was performed.
The coding region encompassing nucleotides 1-487 of TEL was amplified by PCR using the oligonucleotides STEL (5′-GGAGGATCCTGATCTCTCTCGCTGTGAGAC-3′) [SEQ ID NO 14] and 3TEL (5′-AGGC GTCGACTTCTTCTTCATGGTTCTG-3′) [SEQ ID NO 15] and U937 mRNA as a template. A […] restriction site was incorporated into the STEL primer, and a Sal I restriction site was incorporated into the 3TEL primer. The regions encompassing the kinase domain of JAK2 (nucleotides 2994-3914; JAK2F 5′-ACGC GTCGACGGTGCCTTTGAAGACCGGGAT-3′ [SEQ ID NO 16]; JAK2R 5′-ATAGTTTAGCGGCCGCTCAGAATGAAGGTCATTT-3′) [SEQ ID NO 17] and JAK3 (nucleotides 2520-3469; JAK3F 5′-GAAGTCGACTATGCCTGCCAAGACCCCACGATCTT-3′) [SEQ ID NO 18] were generated by PCR using Taq DNA polymerase (Gibco/BRL) and […] as a template. A Sal I restriction site was incorporated into the forward primer of JAK2 and JAK3, a Not I site was incorporated into the JAK2 reverse primer and a Xba I site was added to the reverse primer of JAK3.
A TEL/Jak2 fusion was generated by digestion of the TELPCR product with BamH I/Sal I restriction enzymes, digestion of the JAK2 PCR product with Sal I/Not I restriction enzymes, followed by ligation and subcloning of the ligation product into the mammalian expression Vector pTRE 2 (Clontech), which was prepared by digestion with BamH I-Not I restriction enzymes, to give the TEL/Jak2 fusion plasmid pTELJAK2.
(§2) The growth factor dependant myelomonocytic cell line BaF3 bearing the pTET-off plasmid (Clontech) was transfected with either pTELJAK2 or pTELJAK3, and the transfected cells were selected for growth-factor independent cell growth. The BaF3 wild-type cells were cultured in DMEM containing 10% FCS, 10% WEHI 3B conditioned medium. The BaF3 TELJAK cells ([…]) were cultured in DMEM 10% Tet-System Approved FBS (without WEHI 3B conditioned medium).
(§3) Cell suspensions were prepared by harvesting cells from culture (the cells used in this test were in late log phase growth with high viability.) Cells were diluted in the appropriate growth medium, as described above, to 1.1× final concentration (from 50,000 cell/mL to 200,000 cell/mL, depending on cell line).
(§4) Compounds to be tested were added (10 μL, 10× final concentration) to a flat bottomed 96-well plate. The cellular suspension (90 μL per well) was then added, and the plate incubated for 40 hr at 37° C., 5% CO2. Alamar Blue 10 μL per well was added and the plates returned to the incubator for a further 4-6 hours. The plates were then read at 544 nm.
Background: Resazurin is reduced to fluorescent resorufin, in cell work by metabolically active cells.

The subject of test [4] is BaF3 wild-type cells. Put plainly: Cellular screening, BaF3 wild-type cells, Alamar Blue. Type of test: cell-based. As to conditions: Mus musculus, 40 hr, read-out: BAF3wt IC50_nM. The protocol: as §1, §2, §3, §4
Test [5] has as its system CTLL2. The test is described as follows: Cellular screening, CTLL2 cells, Alamar Blue. It is filed as cell-based. The following applies: Mus musculus, CTLL-2, read-out: CTLL2 IC50_nM. The method, then: as §3, §4

pIC50: −log10 of the molar value.

T1 sequence (P23458 875-1153 limits assumed): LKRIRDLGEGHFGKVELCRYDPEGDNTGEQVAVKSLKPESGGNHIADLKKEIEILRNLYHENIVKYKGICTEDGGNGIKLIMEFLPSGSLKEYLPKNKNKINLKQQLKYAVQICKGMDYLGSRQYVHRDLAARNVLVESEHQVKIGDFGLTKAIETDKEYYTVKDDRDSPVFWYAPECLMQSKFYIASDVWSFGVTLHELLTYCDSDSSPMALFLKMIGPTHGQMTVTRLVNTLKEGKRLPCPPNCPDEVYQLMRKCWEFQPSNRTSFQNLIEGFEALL
T2 sequence (O60674 849-1124 limits assumed): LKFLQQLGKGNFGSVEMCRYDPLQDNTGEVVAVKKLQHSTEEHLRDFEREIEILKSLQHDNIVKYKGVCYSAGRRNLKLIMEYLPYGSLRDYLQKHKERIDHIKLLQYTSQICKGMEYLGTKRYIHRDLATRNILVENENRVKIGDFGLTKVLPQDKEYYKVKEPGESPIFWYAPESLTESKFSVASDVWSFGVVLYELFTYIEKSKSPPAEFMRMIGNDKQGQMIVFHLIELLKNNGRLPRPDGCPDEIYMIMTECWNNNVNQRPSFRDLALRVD

Take `C=CC(=O)Nc1cccc(Nc2nccc(Sc3ccccn3)n2)c1` [Compound 2, N-(3-(4-(pyridin-2-ylthio)pyrimidin-2-ylamino)phenyl)acrylamide]: the pIC50 was less than 6.00 in test [1], less than 6.00 in test [2], more than 5.30 in test [4] and more than 5.30 in test [5]. Moreover, in test [3], the GI50 is less than 5 µM.

As for `C=CC(=O)Nc1cccc(Sc2ccnc(Nc3ccc(N4CCOCC4)cc3)n2)c1` [Compound 23, N-(3-(2-(4-morpholinophenylamino)pyrimidin-4-ylthio)phenyl)acrylamide], the pIC50 in test [1] was less than 6.00; in test [2], less than 6.00; in test [4] it was more than 4.70; in test [5], more than 6.00. For the same compound, the GI50 in test [3] was less than 20 µM.

With `N#CCC(=O)Nc1cccc(Sc2ccnc(Nc3ccc(N4CCOCC4)cc3)n2)c1` [Compound 24, N-(3-(2-(4-morpholinophenylamino)pyrimidin-4-ylthio)phenyl)-2-cyanoacetamide], the pIC50 in test [1] is less than 6.00; in test [2], more than 6.30; in test [4], more than 4.70; in test [5], more than 4.70. In addition, the GI50 in test [3] is less than 20 µM.

As to `C=CC(=O)Nc1ccc(Sc2ccnc(Nc3ccc(N4CCOCC4)cc3)n2)cc1` [Compound 25, N-(4-(2-(4-morpholinophenylamino)pyrimidin-4-ylthio)phenyl)acrylamide], the pIC50 was less than 6.00 in test [1], less than 6.00 in test [2], less than 4.70 in test [4] and more than 6.00 in test [5]. The GI50 in test [3] was more than 20 µM.

Consider `Nc1ccc(Sc2ccnc(Nc3ccc(N4CCOCC4)cc3)n2)cc1` [Compound 27, 4-(4-aophenylthio)-N-(4-morpholinophenyl)pyrimidin-2-ae], for which the pIC50 in test [1] was more than 6.00; in test [2], more than 6.30; in test [4] it was more than 4.70; in test [5], more than 5.30. Besides, the GI50 in test [3] is more than 20 µM.

Turning to `C=CC(=O)Nc1cccc(Nc2nccc(Sc3ccc(OC)cc3)n2)c1` [Compound 42, N-(3-(4-(4-methoxyphenylthio)pyrimidin-2-ylao)phenyl)acrylamide], the pIC50 was less than 6.00 in test [1], less than 6.00 in test [2], more than 4.70 in test [4] and more than 5.30 in test [5]. Moreover, the GI50 in test [3] is less than 20 µM.

On to `OCc1cccc(Sc2ccnc(Nc3ccc(N4CCOCC4)cc3)n2)c1` [Compound 62, (3-(2-(4-Morpholinophenylamino)pyrimidin-4-ylthio)phenyl)methanol], for which the pIC50 in test [1] is less than 6.00; in test [2], more than 6.30; in test [4], more than 4.70; in test [5] it was more than 4.70. Moreover, the GI50 in test [3] is less than 20 µM.

Take `C=CC(=O)Nc1ccc(Sc2nc(Nc3ccc(C4CCN(C)CC4)cc3)ncc2C)cc1` [Compound 246, N-(4-(5-methyl-2-(4-(1-methylpiperidin-4-yl)phenylao)pyrimidin-4-ylthio)phenyl)acrylamide]: the pIC50 in test [1] and in test [2] was less than 6.00 each time. Further, the GI50 in test [3] was less than 5 µM.

For `Cc1cc(Sc2nc(Nc3ccc(N4CCOCC4)cc3)ncc2C)ccc1N` [Compound 255, 4-(4-ao-3-methylphenylthio)-5-methyl-N-(4-morpholinophenyl)pyrimidin-2-ae], the pIC50 in test [2] was more than 6.00; in test [4], more than 4.70; in test [5], less than 4.70. In test [3], the GI50 is less than 20 µM.

For the compound `C=CC(=O)Nc1ccc(Sc2nc(Nc3ccc(N4CCOCC4)cc3)ncc2C)cc1C` [Compound 259], the values for the pIC50 in test [2], in test [4] and in test [5] were less than 6.00, more than 4.70 and more than 6.00, respectively. For the same compound, the GI50 in test [3] was less than 20 µM.

For `C=CC(=O)Nc1ccc(Sc2nc(Nc3ccc(N4CCOCC4)cc3)ncc2C)cc1CC` [Compound 260, N-(2-ethyl-4-(5-methyl-2-(4-morpholinophenylao)pyrimidin-4-ylthio)phenyl)acrylamide], the pIC50 in test [2] is less than 6.00; in test [4], less than 4.70; in test [5] it was more than 5.30. The GI50 in test [3] is more than 20 µM.

On to `Cc1cnc(Nc2ccc(N3CCOCC3)cc2)nc1Sc1ccc(N)nc1` [Compound 262, 4-(6-aopyridin-3-ylthio)-5-methyl-N-(4-morpholinophenyl)pyrimidin-2-ae], for which the pIC50 in test [2] was more than 6.30; in test [4] it was less than 4.70; in test [5], less than 4.70. The GI50 in test [3] was less than 20 µM.

As to `Nc1ccc(Sc2nc(Nc3ccc(N4CCOCC4)cc3)ncc2F)cc1` [Compound 263, 4-(4-aophenylthio)-5-fluoro-N-(4-morpholinophenyl)pyrimidin-2-ae], the results for the pIC50 in test [2], in test [4] and in test [5] were less than 6.00, more than 5.30 and less than 4.70, respectively. Moreover, in test [3], the GI50 is less than 5 µM.

For the compound `Nc1ccc(Sc2nc(Nc3cccc(N4CCOCC4)c3)ncc2I)cc1` [Compound 264, 4-(4-aophenylthio)-5-iodo-N-(3-morpholinophenyl)pyrimidin-2-ae], the pIC50 in test [2] was less than 6.00; in test [4], more than 5.30; in test [5] it was more than 5.30. Moreover, in test [3], the GI50 was less than 5 µM.

In the case of `C=CC(=O)Nc1ccc(Sc2ccnc(Nc3ccc(O)cc3)n2)cc1` [Compound 276, N-(4-(2-(4-hydroxyphenylao)pyrimidin-4-ylthio)phenyl)acrylamide], the pIC50 in test [2] is less than 6.00; in test [4], more than 4.70; in test [5] it was more than 6.00. For the same compound, in test [3], the GI50 was less than 20 µM.

On to `C=CC(=O)Nc1ccc(Sc2ccnc(Nc3cccc(O)c3)n2)cc1` [Compound 277, N-(4-(2-(3-hydroxyphenylao)pyrimidin-4-ylthio)phenyl)acrylamide], for which the pIC50 was less than 6.00 in test [2], less than 4.70 in test [4] and more than 6.00 in test [5]. Moreover, the GI50 in test [3] is less than 5 µM.
